Source: patent publication US11912701B2, “Protein kinase inhibitors for promoting liver regeneration or reducing or preventing hepatocyte death” (HEPAREGENIX GMBH, priority 2018, dated 2024)

Assays:
[1] = molecular target: T1, MKK4 (Homo sapiens, UniProt P45985); assay: KINOMEscan competition binding assay, MKK4; details: residual percent of control binding (PoC) at 100 nM
T1 construct: S84/D399; host or cells: HEK-293
T1 sequence (P45985 84-399): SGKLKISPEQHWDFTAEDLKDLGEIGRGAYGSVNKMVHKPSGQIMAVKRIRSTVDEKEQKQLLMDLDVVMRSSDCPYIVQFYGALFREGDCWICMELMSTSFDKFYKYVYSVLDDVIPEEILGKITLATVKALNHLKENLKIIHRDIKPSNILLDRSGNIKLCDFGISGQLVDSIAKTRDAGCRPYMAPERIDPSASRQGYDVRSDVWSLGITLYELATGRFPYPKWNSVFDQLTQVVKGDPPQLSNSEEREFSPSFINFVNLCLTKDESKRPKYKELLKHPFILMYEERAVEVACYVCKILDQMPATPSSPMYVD
Description: (§1) The assay was performed by combining three components: DNA-tagged kinase; immobilized ligand; and a test compound. The ability of the test compound to compete with the immobilized ligand was measured via quantitative PCR of the DNA tag. The technology is described in detail in Fabian, M. A. et al. A small molecule-kinase interaction map for clinical kinase inhibitors. Nat. […] Nat.
(§2) For investigation of the affinity to MKK4, BRaf, MKK7 and JNK1, the kinases were produced in HEK-293 cells and subsequently tagged with DNA for qPCR detection. […] The liganded beads were blocked with excess biotin and washed with blocking buffer (SEABLOCK™ (Pierce), 1% BSA, 0.05% TWEEN®20, 1 mM DTT) to remove unbound ligand and to reduce nonspecific binding. […] All reactions were performed in polystyrene 96-well plates in a final volume of 0.135 mL. […] The kinase concentration in the eluates was measured by qPCR.
(§3) The test compounds were provided as 10 mM stock solutions. The test solutions at indicated final concentrations were prepared at DiscoverX.
Potency of representative examples against the protein kinases MKK4, BRaf, MKK7 and JNK1 expressed as residual percent of control binding (PoC), was determined at a concentration of 100 nM. The determined potencies are categorized as follows: […]

[2] = molecular target: T2, MKK7 (Homo sapiens, UniProt O14733); assay: KINOMEscan competition binding assay, MKK7; design: M1/R419; host or cells: HEK-293; details: ratio PoC (off-target)/PoC (MKK4)
T2 sequence (O14733 1-419): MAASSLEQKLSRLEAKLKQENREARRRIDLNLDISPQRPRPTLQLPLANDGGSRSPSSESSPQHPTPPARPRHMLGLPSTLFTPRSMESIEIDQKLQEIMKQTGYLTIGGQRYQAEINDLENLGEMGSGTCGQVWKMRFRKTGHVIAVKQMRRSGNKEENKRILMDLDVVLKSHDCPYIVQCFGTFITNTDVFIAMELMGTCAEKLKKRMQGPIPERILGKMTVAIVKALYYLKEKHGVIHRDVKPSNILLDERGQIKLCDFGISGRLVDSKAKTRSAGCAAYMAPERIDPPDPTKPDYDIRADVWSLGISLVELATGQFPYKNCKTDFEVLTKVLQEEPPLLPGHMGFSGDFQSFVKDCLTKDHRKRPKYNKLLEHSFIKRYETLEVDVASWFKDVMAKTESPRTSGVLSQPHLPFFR
Description: as §1, §2, §3
(§4) Potency of representative examples against the protein kinases MKK4, BRaf, MKK7 and JNK1 expressed as residual percent of control binding (PoC), was determined at a concentration of 100 nM. The determined potencies are categorized as follows:
(§5) The binding selectivity of representative examples against the protein kinases BRaf, MKK7 and JNK1, altogether denominated as “off-targets” is determined by the ratios of PoC (off-target)/PoC (MKK4).

[3] = molecular target: JNK1 (Homo sapiens, UniProt P45983); assay: KINOMEscan competition binding assay, JNK1; design: M1/Q384; host or cells: HEK-293; details: ratio PoC (off-target)/PoC (MKK4)
Description: as §1, §2, §3, §4, §5

[4] = molecular target: T3, BRaf (Homo sapiens, UniProt P15056); assay: KINOMEscan competition binding assay, BRaf; details: ratio PoC (off-target)/PoC (MKK4)
T3 construct: purchased ProQinase GmbH, Freiburg, Germany (33PanQinase Assay Service)
Description: as §1, §2, §3, §4, §5

Chain of JNK1 (P45983 1-384 isoform P45983-2): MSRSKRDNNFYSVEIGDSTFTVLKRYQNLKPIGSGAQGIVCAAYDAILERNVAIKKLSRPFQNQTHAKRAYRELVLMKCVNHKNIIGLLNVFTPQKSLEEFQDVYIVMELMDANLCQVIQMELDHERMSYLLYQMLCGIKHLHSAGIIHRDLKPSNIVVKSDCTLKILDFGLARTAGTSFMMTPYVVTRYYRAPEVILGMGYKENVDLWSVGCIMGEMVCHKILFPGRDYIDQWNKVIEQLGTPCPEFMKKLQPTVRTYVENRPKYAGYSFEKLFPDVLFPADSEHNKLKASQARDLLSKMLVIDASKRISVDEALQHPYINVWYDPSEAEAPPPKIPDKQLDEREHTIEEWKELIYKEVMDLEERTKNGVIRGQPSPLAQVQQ
T3 sequence (P15056 whole entry, species assumed): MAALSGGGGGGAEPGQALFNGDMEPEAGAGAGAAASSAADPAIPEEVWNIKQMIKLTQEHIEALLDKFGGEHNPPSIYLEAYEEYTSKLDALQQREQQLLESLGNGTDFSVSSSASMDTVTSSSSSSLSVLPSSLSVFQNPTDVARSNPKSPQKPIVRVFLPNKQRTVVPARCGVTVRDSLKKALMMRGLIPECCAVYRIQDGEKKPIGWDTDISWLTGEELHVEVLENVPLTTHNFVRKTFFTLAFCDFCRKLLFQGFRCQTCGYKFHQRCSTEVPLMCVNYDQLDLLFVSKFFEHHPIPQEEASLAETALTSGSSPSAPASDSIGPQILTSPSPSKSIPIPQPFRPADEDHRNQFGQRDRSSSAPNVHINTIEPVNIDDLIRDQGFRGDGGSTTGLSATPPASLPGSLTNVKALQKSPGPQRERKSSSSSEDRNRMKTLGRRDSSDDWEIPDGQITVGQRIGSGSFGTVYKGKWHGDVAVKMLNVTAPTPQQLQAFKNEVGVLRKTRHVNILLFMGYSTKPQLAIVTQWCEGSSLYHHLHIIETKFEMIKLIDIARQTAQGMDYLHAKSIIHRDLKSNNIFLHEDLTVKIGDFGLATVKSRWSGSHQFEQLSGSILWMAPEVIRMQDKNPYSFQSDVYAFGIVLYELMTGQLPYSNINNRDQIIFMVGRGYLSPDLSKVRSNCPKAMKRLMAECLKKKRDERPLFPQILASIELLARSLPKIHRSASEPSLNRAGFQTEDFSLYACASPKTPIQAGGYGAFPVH

Compound | MKK4 [% Ctrl @ 100 nM [1] | selectivity based on % Ctrl @100 nM vs. MKK7 [2] | selectivity based on % Ctrl @100 nM vs. JNK1 [3] | selectivity based on % Ctrl @100 nM vs. Braf [4]
CCCCS(=O)(=O)Nc1ccc(F)c(C(=O)c2c[nH]c3ncc(-c4ccc(OC)cc4Cl)cc23)c1F [Example 21, N-(3-(5-(2-chloro-4-methoxyphenyl)-1H-pyrrolo[2,3-b]pyridine-3-carbonyl)-2,4-difluorophenyl)butane-1-sulfonamide] | ++ (1 ≤ PoC < 3) | ++ (100 ≥ ratio > 10) | ++ (100 ≥ ratio > 10) | ++ (100 ≥ ratio > 10)
CCCCS(=O)(=O)Nc1ccc(F)c(C(=O)c2c[nH]c3ncc(-c4ccc(F)cc4C)cc23)c1F [Example 19, N-(2,4-difluoro-3-(5-(4-fluoro-2-methylphenyl)-1H-pyrrolo[2,3-b]pyridine-3-carbonyl)phenyl)butane-1-sulfonamide] | + (3 ≤ PoC < 30) | ++ (100 ≥ ratio > 10) | ++ (100 ≥ ratio > 10) | ++ (100 ≥ ratio > 10)
C#Cc1cnc2[nH]cc(C(=O)c3c(F)ccc(NS(=O)(=O)CCC)c3F)c2c1 [Example 18, N-(3-(5-ethynyl-1H-pyrrolo[2,3-b]pyridine-3-carbonyl)-2,4-difluorophenyl) propane-1-sulfonamide] | + (3 ≤ PoC < 30) | + (10 ≥ ratio > 3) | + (10 ≥ ratio > 3) | ◯ (3 ≥ Ratio)
CCCS(=O)(=O)Nc1cc(Br)cc(C(=O)c2c[nH]c3ncc(-c4ccc(Cl)cc4)cc23)c1 [Example 13, N-(3-bromo-5-(5-(4-chlorophenyl)-1H-pyrrolo[2,3-b]pyridine-3-carbonyl)-phenyl)propane-1-sulfonamide] | ◯ (30 ≤ PoC) | ◯ (3 ≥ Ratio) | ◯ (3 ≥ Ratio) | ◯ (3 ≥ Ratio)
CCCNS(=O)(=O)c1cccc(C(=O)c2c[nH]c3ncc(Br)cc23)c1 [Example 14, 3-(5-bromo-1H-pyrrolo[2,3-b]pyridine-3-carbonyl)-N-propyl benzene sulfonamide] | ◯ (30 ≤ PoC) | ◯ (3 ≥ Ratio) | ◯ (3 ≥ Ratio) | ◯ (3 ≥ Ratio)
CCCS(=O)(=O)Nc1ccc(F)c(C(=O)c2c[nH]c3ncc(-c4ccc(N5CCN(C(C)=O)CC5)cc4)cc23)c1F [Example 24, N-(3-(5-(4-(4-acetylpiperazin-1-yl)phenyl)-1H-pyrrolo[2,3-b]pyridine-3-carbonyl)-2,4-difluorophenyl)propane-1-sulfonamide] | + (3 ≤ PoC < 30) | ++ (100 ≥ ratio > 10) | + (10 ≥ ratio > 3) | ◯ (3 ≥ Ratio)
CCCS(=O)(=O)Nc1cc(Cl)cc(C(=O)c2c[nH]c3ncc(-c4ccc(Cl)cc4)cc23)c1 [Example 16, N-(3-chloro-5-(5-(4-chlorophenyl)-1H-pyrrolo[2,3-b]pyridine-3-carbonyl)phenyl)propane-1-sulfonamide] | ◯ (30 ≤ PoC) | ◯ (3 ≥ Ratio) | ◯ (3 ≥ Ratio) | ◯ (3 ≥ Ratio)
COc1ccc(-c2cnc3[nH]cc(C(=O)c4c(F)ccc(NS(=O)(=O)Cc5ccccc5)c4F)c3c2)cc1 [Example 26, N-(2,4-difluoro-3-(5-(4-methoxyphenyl)-1H-pyrrolo[2,3-b]pyridine-3-carbonyl)phenyl)-1-phenylmethanesulfonamide] | ++ (1 ≤ PoC < 3) | ++ (100 ≥ ratio > 10) | ++ (100 ≥ ratio > 10) | ++ (100 ≥ ratio > 10)

Other lines, results leading:

MKK4 [% Ctrl @ 100 nM [1] | selectivity based on % Ctrl @100 nM vs. MKK7 [2] | selectivity based on % Ctrl @100 nM vs. JNK1 [3] | selectivity based on % Ctrl @100 nM vs. Braf [4] | Compound
+++ (PoC < 1) | +++ (Ratio > 100) | +++ (Ratio > 100) | ++ (100 ≥ ratio > 10) | CCCS(=O)(=O)Nc1ccc(F)c(C(=O)c2c[nH]c3ncc(-c4ccc(OCC(O)CO)cc4Cl)cc23)c1F (centres unmarked) [Example 30, N-(3-(5-(2-chloro-4-(2,3-dihydroxypropoxy)phenyl)-1H-pyrrolo[2,3-b]pyridine-3-carbonyl)-2,4-difluorophenyl)propane-1-sulfonamide]
+++ (PoC < 1) | +++ (Ratio > 100) | +++ (Ratio > 100) | ◯ (3 ≥ Ratio) | CCCS(=O)(=O)Nc1ccc(F)c(C(=O)c2c[nH]c3ncc(-c4ccc(OCC(O)CO)cc4)cc23)c1F (centres unmarked) [Example 31, N-(3-(5-(4-(2,3-dihydroxypropoxy)phenyl)-1H-pyrrolo[2,3-b]pyridine-3-carbonyl)-2,4-difluorophenyl)propane-1-sulfonamide]
++ (1 ≤ PoC < 3) | ++ (100 ≥ ratio > 10) | ++ (100 ≥ ratio > 10) | ++ (100 ≥ ratio > 10) | O=C(c1c(F)ccc(NS(=O)(=O)Cc2ccccc2)c1F)c1c[nH]c2ncc(-c3ccc(F)cc3)cc12 [Example 28, N-(2,4-difluoro-3-(5-(4-fluorophenyl)-1H-pyrrolo[2,3-b]pyridine-3-carbonyl)phenyl)-1-phenylmethanesulfonamide]
+ (3 ≤ PoC < 30) | + (10 ≥ ratio > 3) | + (10 ≥ ratio > 3) | ◯ (3 ≥ Ratio) | CCCS(=O)(=O)Nc1ccc(F)c(C(=O)c2c[nH]c3ncc(-c4ccc(OCC5COC(C)(C)O5)cc4Cl)cc23)c1F (centres unmarked) [Example 25, N-(3-(5-(2-chloro-4-((2,2-dimethyl-1,3-dioxolan-4-yl)methoxy)phenyl)-1H-pyrrolo[2,3-b]pyridine-3-carbonyl)-2,4-difluorophenyl)propane-1-sulfonamide]
+ (3 ≤ PoC < 30) | ++ (100 ≥ ratio > 10) | ++ (100 ≥ ratio > 10) | + (10 ≥ ratio > 3) | CCCS(=O)(=O)Nc1ccc(F)c(C(=O)c2c[nH]c3ncc(-c4ccc(OC)cc4OC)cc23)c1F [Example 104, N-(3-(5-(2,4-dimethoxyphenyl)-1H-pyrrolo[2,3-b]pyridine-3-carbonyl)-2,4-difluorophenyl)propane-1-sulfonamide]
+ (3 ≤ PoC < 30) | ++ (100 ≥ ratio > 10) | ++ (100 ≥ ratio > 10) | ◯ (3 ≥ Ratio) | CCCS(=O)(=O)Nc1ccc(F)c(C(=O)c2c[nH]c3ncc(-c4ccc(OCC5COC(C)(C)O5)cc4)cc23)c1F (centres unmarked) [Example 29, N-(3-(5-(4-((2,2-dimethyl-1,3-dioxolan-4-yl)methoxy)phenyl)-1H-pyrrolo[2,3-b]pyridine-3-carbonyl)-2,4-difluorophenyl)propane-1-sulfonamide]
